The text below walks through data of article PMC6004562, “Discovery of Orally Bioavailable, Quinoline-Based Aldehyde Dehydrogenase 1A1 (ALDH1A1) Inhibitors with Potent Cellular Activity” (Journal of Medicinal Chemistry, 2018).

Like-named read-outs stand apart in the source and are kept apart here.

The conditions of data set [1]: Figure 1, previously reported; cited from earlier work.
For data set [2] the following is noted: Figure 1, previously reported; cited from earlier work. This is another data set of the same source.
Data set [3] is described as follows: pharmacokinetics in CD-1 mice. Particulars: male, plasma, CD-1 mouse; for Vd: read-out: Vss; for bioavailability: po 10 mg/kg vs iv 2 mg/kg. The class given is in vivo.
Data set [4] can be described thus: pilot toxicity / tolerability study in CD-1 mice. Particulars: po 50 mg/kg, QD*5, 5 days observation.
For data set [5] the following is noted: mouse, in vivo, po, 50 mg/kg.
Where [6] appears, read: iv 2 mg/kg, observed at t = 5 min.

As a reminder, the solubility is how much of the substance goes into solution per volume. The term AUC(0-inf) denotes total exposure, with the tail of the curve extrapolated. Higher therefore signals more exposure. A word on the Cmax: it is the peak of the concentration-time curve. Broadly, the bioavailability is the share of a dose that reaches the circulation, judged against a reference dose that is usually intravenous. A lower bioavailability goes with poor availability.

In the case of `CC(C)CCn1c(CN2CCN(C(=O)C3CC3)CC2)nc2c1c(=O)n(C)c(=O)n2C` [Compound 4], in data set [1], the RLM is over 30 min. The solubility in data set [2] was over 62 µg/mL.
On to `N#CC1(c2ccccc2)CCN(c2c(C(=O)N3CCN(C(=O)C4CC4)CC3)cnc3ccc(F)cc23)CC1` [Compound 78], for which, in data set [3] (iv 2 mg/kg), the AUC(0-inf) came out at 505 ng·h/mL and the Vd stood at 1.2 L/kg. Moreover, the Cmax in data set [3] (setting [6]) is 1500 ng/mL. In data set [3] (po 10 mg/kg), this molecule gave a total exposure AUC(0-inf) of 227 ng·h/mL and a Cmax of 215 ng/mL. The molecule also registered a bioavailability in data set [3] of 9%.
As for `CS(=O)(=O)N1CCN(C(=O)c2cnc3ccc(F)cc3c2N2CCC(C#N)(c3ccccc3)CC2)CC1` [Compound 86, 1-(6-Fluoro-3-(4-(methylsulfonyl)piperazine-1-carbonyl)quinolin-4-yl)-4-phenylpiperidine-4-carbonitrile], the tolerability result in data set [4] is “no significant weight loss or abnormal clinical signs and no mortality was observed”.
With `CS(=O)(=O)N1CCN(C(=O)c2cnc3ccc(F)cc3c2-c2ccc(C3(C#N)CC3)cc2)CC1` [Compound 91, 1-(4-(6-Fluoro-3-(4-(methylsulfonyl)piperazine-1-carbonyl)quinolin-4-yl)phenyl)cyclopropanecarbonitrile], the tolerability result in data set [5] was “no significant weight loss or abnormal clinical signs and no mortality was observed”.
For `CN(C)C(=O)N1CCN(C(=O)c2cnc3ccc(F)cc3c2N2CCC(C#N)(c3ccccc3)CC2)CC1` [Compound 108], the total exposure AUC(0-inf) in data set [3] (iv 2 mg/kg) came to 661 ng·h/mL; in data set [3] (po 10 mg/kg), 844 ng·h/mL. For the same molecule, the Cmax came out at 1800 ng/mL in data set [3] (setting [6]) and 1110 ng/mL in data set [3] (po 10 mg/kg). The Vd in data set [3] (iv 2 mg/kg) came to 0.72 L/kg. This molecule showed a bioavailability in data set [3] of 30%.
`CS(=O)(=O)N1CCN(C(=O)c2cnc3ccc(Cl)cc3c2N2CCC(C#N)(c3ccccc3)CC2)CC1` [Compound 109]: in data set [3] (iv 2 mg/kg), the area under the curve AUC(0-inf) is 459 ng·h/mL and the Vd was 1.39 L/kg. The molecule further yielded a Cmax in data set [3] (setting [6]) of 1100 ng/mL. In data set [3] (po 10 mg/kg), this molecule had an area under the curve AUC(0-inf) of 720 ng·h/mL and a Cmax of 471 ng/mL. In data set [3], this molecule returned a bioavailability of 31%.
In the case of `CN(C)C(=O)N1CCN(C(=O)c2cnc3ccc(F)cc3c2-c2ccc(C3(C#N)CC3)cc2)CC1` [Compound 118], in data set [3] (iv 2 mg/kg), the AUC(0-inf) was found to be 1410 ng·h/mL and the Vd was found to be 2.2 L/kg. Also, the highest concentration (Cmax) in data set [3] (setting [6]) is 1960 ng/mL. In addition, in data set [3] (po 10 mg/kg), the AUC(0-inf) was 2140 ng·h/mL and the peak level (Cmax) was 1170 ng/mL. Further, the bioavailability in data set [3] is 30%.
As for `CS(=O)(=O)N1CCN(C(=O)c2cnc3ccc(Cl)cc3c2-c2ccc(C3(C#N)CC3)cc2)CC1` [Compound 119], in data set [3] (iv 2 mg/kg), the AUC(0-inf) is 1130 ng·h/mL and the Vd came to 1.14 L/kg. In data set [3] (po 10 mg/kg), this molecule gave an AUC(0-inf) of 2760 ng·h/mL and a peak concentration (Cmax) of 1470 ng/mL. The molecule further yielded a bioavailability in data set [3] of 49%.
